In patent US8354374B2, “Peptides having pharmacological activity for treating disorders associated with altered cell migration, such as cancer” (Pharmaphelix S.R.L., priority 2006, dated 2013):
One block for each compound: values may come before it. Square brackets hold non-standard residues; d marks the D form. Peptide text beside a SMILES is read from it. ξ: configuration not given here. ξαMeF = CC(N)(Cc1ccccc1)C(=O)O; Aib = CC(C)(N)C(=O)O

Columns and labels:
in vivo [1] = conditions: mouse
rat = conditions: acute
mouse = conditions: acute
in vivo [2] = conditions: rat
[3] = test system: murine melanoma B16 cells; conditions: Ohtaki et al. 2001; cited from earlier work
[4] = test system: human fibrosarcoma HT1080 cells; test: Directional migration towards 10% FBS in Boyden chamber; type: cell-based
Description: The effect of PICM57 described in example 3 on the cell migration of human fibrosarcoma HT1080 cells was tested. A Boyden chamber equipped with polycarbonate filters, having pores with a diameter of 8 μm (Nucleopore), free of polyvinylpyrrolidone and coated with 5 μg/ml of vitronectin (Promega), was used, as reported in the literature (Carriero et al., Cancer Res. 59, 5307, 1999). 3×10^4 cells, in serum-free DMEM (Dulbecco Modified Eagle Medium), were deposited in the upper compartment of the Boyden chamber. The lower chamber was packed with DMEM containing 10% FBS (Foetal Bovine Serum) as a source of chemotactics, in the presence of increasing concentrations of PICM57. The cells were incubated for 4 h at 37° C. in humidified air containing 5% CO2. After incubation, the cells adhering to the upper surface of the filter were mechanically removed, and the migrated cells adhering to the lower surface of the filter were fixed in ethanol, stained with haematoxylin, and counted at 200× in 10 fields/filter chosen at random. The directional migration in response to FBS in the absence of PICM57 was taken as 100% and the effect of PICM57 on cell migration was evaluated in percentage terms. The data represent the average of three independent experiments conducted in duplicate. The antagonistic effect of PICM57 on migration of HT1080 cells towards FBS is dose-dependent (Table 2). It begins at concentrations of 1 aM, reaches 50% of its maximum value at concentrations of 1 fM, and reaches the maximum effect at concentrations of 10 fM (66% of inhibition).
The mobility induced by FBS in the presence of Metastin[45-54] was evaluated under the same experimental conditions (Table 3). […]

FPR = target: T1, FPR (Homo sapiens, UniProt P21462); conditions: cells pre-incubated with 10 μM peptide
T1 sequence (P21462 1-350): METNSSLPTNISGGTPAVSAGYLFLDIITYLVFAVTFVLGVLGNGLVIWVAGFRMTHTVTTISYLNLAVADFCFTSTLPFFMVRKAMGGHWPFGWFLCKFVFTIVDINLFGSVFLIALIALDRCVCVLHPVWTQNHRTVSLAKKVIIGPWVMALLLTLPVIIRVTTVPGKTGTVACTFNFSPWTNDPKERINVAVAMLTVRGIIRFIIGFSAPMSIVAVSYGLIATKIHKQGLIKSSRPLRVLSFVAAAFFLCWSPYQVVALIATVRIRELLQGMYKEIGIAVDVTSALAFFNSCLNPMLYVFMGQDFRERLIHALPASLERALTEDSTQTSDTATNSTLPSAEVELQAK

[5] = test system: HUVEC cells (Human Umbilical Vein Endothelial Cells); test: In vitro neo-angiogenesis: VEGF-dependent tubule formation on matrigel; type: cell-based
Description: The in vitro neo-angiogenesis tests were conducted by exploiting the ability of endothelial cells to form, in the presence of pro-angiogenic factors, cords which extend to form a network of microtubules on a layer of polymerised matrigel. For this type of assay, 5×10^4 HUVEC cells (Human Umbilical Vein Endothelial Cells) per well were plated in 24-well plates, in which 300 μl of matrigel was left to polymerise in the presence of 40 ng/ml of VEGF (Vascular Endothelial Growth Factor), used as pro-angiogenic agent, and the peptides indicated, at different concentrations. Tubule formation was evaluated after 18 hours' incubation at 37° C. in 5% CO2, by counting the number of tubular structures in at least 5 fields, chosen at random, with an inverted microscope. The effect of the peptides on VEGF-dependent tubule-forming activity is calculated as a percentage of the number of tubular structures counted in the presence of VEGF (taken as 100%). The data (Table 9) represent the average of two experiments conducted in duplicate. The antagonistic effect of PICM1 and PICM57 on neo-angiogenesis in vitro is dose-dependent. This effect begins at concentrations of aM and reaches the peak action at a concentration of pM (20% of the number of tubular structures counted); 50% of the maximum effect is reached at concentrations of fM. The anti-angiogenic effect exerted by 50 nM of endostatin and the low inhibitory effect exerted by metastin[45-54] are shown by way of comparison.

[6] = test system: human fibrosarcoma HT1080 cells in CD1 nude mice; test: Anti-metastatic effect in vivo: pulmonary metastasis of HT1080 cells injected into the caudal vein; conditions: 3 mg/Kg every 48 h
Description: The anti-metastatic power of PICM1 was evaluated on an animal model. 2×10^6 human fibrosarcoma HT1080 cells, which cause pulmonary metastasis in the experimental model (Schweinitz A, et al., J. Biol. Chem. 279:33613, 2004), were suspended in saline solution and injected into the caudal vein of twenty 7-week-old CD1 nude mice. 24 hours after the inoculation of the tumour cells, groups of 10 animals were treated with a slow injection of 3 mg/Kg of PICM1, dissolved in 100 μl of saline solution, every 48 h, with the animal immobilised. The 10 control animals received the same injection treatment, but with the saline solution only. Each animal was weighed and inspected for dyspnoea every day. […] All the treated and control animals were sacrificed, and an autopsy was conducted. The lungs, liver, kidneys, spleen and heart were subjected to macroscopic and microscopic analysis.

[7] = test system: Cell lines of human or murine origin, derived from various tissues; test: Directional migration towards 10% FBS, all the cell lines tested; type: cell-based; conditions: 100 pM PICM1
Description: Cell lines of human or murine origin, derived from various tissues, were subjected to in vitro directional migration tests employing Boyden chambers as described in example 4, and using 10% FBS as chemotactic source, in the presence/absence of 100 pM PICM1. Directional migration in response to FBS in the absence of PICM1 was taken as 100%, and the effect of PICM1 on cell migration was evaluated as a percentage of said value. The data represent the average of two independent experiments conducted in duplicate. In all the cell lines tested, an inhibiting effect of PICM1 on cell migration was observed (Table 4). Although the extent of the inhibition differs between the cell lines used, it was never less than 50%, and was also observed in murine melanoma B16 cells, which are unresponsive to Metastin (Ohtaki, T., et al. (2001) Nature 411, 613-617).

[8] = test system: human fibrosarcoma HT1080 cells; test: In vitro cell invasion through matrigel towards 10% FBS (Boyden chamber); type: cell-based
Description: The in vitro cell invasion tests were conducted with Boyden chambers, using polyvinylpyrrolidone free filters, having pores with a diameter of 8 μm (Nucleopore), coated with 70 μg/filter of matrigel and DMEM containing 10% FBS as chemoattractant (Silvestri et al. Int. J. Cancer 102, 562-571, 2002). Human fibrosarcoma HT1080 cells (2×10^5 cells/sample) were deposited in the upper compartment of the chamber in a serum-free culture medium. The lower compartment of the chamber contained DMEM with the addition of 10% FBS as chemotactic source, and the peptides to be assayed, tested at the concentration indicated. The chambers, thus assembled, were placed at 37° C. in a humidified environment containing 5% CO2. After 18 hrs, the cells which had crossed the matrigel and adhered to the lower surface of the filters were fixed, stained and counted. The data represent the average of two independent experiments conducted in duplicate. The results, set out in Table 8, are expressed as the percentage of cells that invade the matrigel in the presence of FBS, but in the absence of peptide (100%). The inhibiting effect of PICM1 and PICM57 on the invasiveness of HT1080 cells is dose-dependent.

[9] = 10 pM peptide, 10% FBS alone = 100%
[10] = 10 nM peptide, 10% FBS alone = 100%
[11] = 1 aM peptide, migration toward 10% FBS alone = 100%
[12] = 10 aM peptide, 10% FBS alone = 100%
[13] = 10 fM peptide, 10% FBS alone = 100%
[14] = injection, sacrifice after 22 days

Compound: CC(=O)N[C@@H](CCCNC(=N)N)C(=O)NC(C)(C)C(=O)N[C@@H](CCCNC(=N)N)C(=O)NC(C)(Cc1ccccc1)C(N)=O (stereo partly drawn) [PICM57, Ac-Arg-Aib-Arg-α(Me)Phe-NH2] (Ac-R[Aib]R[ξαMeF]-NH2)
LD50 (in vivo [1]): 30 mg/kg
dose with all animals alive (rat): 58 mg/kg
dose with all animals dead (rat): 70 mg/kg
dose with all animals alive (mouse): 28 mg/kg
dose with all animals dead (mouse): 32 mg/kg
LD50 (in vivo [2]): 65 mg/kg

Compound: Metastin
responsiveness of B16 cells [3]: unresponsive

reduction of binding of fluorescinated formyl-Nle-Leu-Phe-Nle-Tyr-Lys to the cell surface (FPR): does not modify
Compound: Metastin[45-54] [reference compound]
Cell Migration towards 10% FBS (%) [4, 9]: 53%
concentration needed for comparable inhibition of migration, times greater than PICM57 ([4]; 10 nM Metastin[45-54] vs. 10 fM PICM57): 1,000 times
Cell Migration towards 10% FBS (%) [4, 10]: 56%
Cell Migration towards 10% FBS (%) [4, 11]: 100%
Cell Migration towards 10% FBS (%) [4, 12]: 83%
Cell Migration towards 10% FBS (%) [4, 13]: 73%
VEGF-dependent tubule-forming activity (%) ([5]; 10 pM peptide): 63%
VEGF-dependent tubule-forming activity (%) ([5]; 10 nM peptide): 65%
VEGF-dependent tubule-forming activity (%) ([5]; 10 fM peptide): 90%

Compound: Endostatin [reference compound]
VEGF-dependent tubule-forming activity (%) ([5]; 10 nM peptide): 30%

Compound: CC(=O)N[C@@H](CCCNC(=N)N)C(=O)N[C@@H](CCC(=O)O)C(=O)N[C@@H](CCCNC(=N)N)C(=O)N[C@@H](Cc1ccccc1)C(N)=O [PICM1, Ac-Arg-Glu-Arg-Phe-NH2] (Ac-RERF-NH2)
extensive sub-pleural neoformations on macroscopic analysis of the lungs [6, 14]: not observed in the treated animals
pulmonary metastasis on microscopic observation [6, 14]: did not exhibit the presence of metastasis
histo-morphological alterations of lungs, liver, kidneys, spleen and heart ([6]; autopsy): None of the organs examined, of the controlled or treated animals, presented any histo-morphological alterations, with the exception of the lungs
Cell Migration towards 10% FBS (%) [4, 9]: 46%
Cell Migration towards 10% FBS (%) ([4]; 100 pM peptide, 10% FBS alone = 100%): 34%
Cell Migration towards 10% FBS (%) [4, 10]: 35%
Cell Migration towards 10% FBS (%) [4, 11]: 99%
Cell Migration towards 10% FBS (%) [4, 12]: 70%
Cell Migration towards 10% FBS (%) [4, 13]: 56%
extent of the inhibition of cell migration [7]: ≥ 50%
concentration at which 50% of the maximum effect on neo-angiogenesis is reached [5]: fM
VEGF-dependent tubule-forming activity (%) ([5]; 10 pM peptide): 30%
VEGF-dependent tubule-forming activity (%) ([5]; 10 nM peptide): 22%
VEGF-dependent tubule-forming activity (%) ([5]; 1 aM peptide, 40 ng/ml VEGF = 100%): 104%
VEGF-dependent tubule-forming activity (%) ([5]; 10 aM peptide): 77%
VEGF-dependent tubule-forming activity (%) ([5]; 10 fM peptide): 65%
tubular structures at peak action (% of VEGF-only control) ([5]; peak action at a concentration of pM): 20%
Cell invasion towards 10% FBS (%) ([8]; 10 pM peptide): 55%
Cell invasion towards 10% FBS (%) ([8]; 10 nM peptide): 44%
Cell invasion towards 10% FBS (%) ([8]; 1 aM peptide, FBS without peptide = 100%): 100%
Cell invasion towards 10% FBS (%) ([8]; 10 aM peptide): 101%
Cell invasion towards 10% FBS (%) ([8]; 10 fM peptide): 62%
